This passage reports Ki results from BindingDB's records for doi:10.1021/jm00022a006 (Eli Lilly, 1995).

SMILES strings stand for the structures.

In this experiment the target is Leukotriene B4 receptor 1 (Cavia porcellus). Nature of the experiment: Binding affinity towards LTB4 receptor guinea pig spleen cells using [3H]LTB4 as radioligand.
The Ki is a dissociation constant, usually derived from enzyme kinetics or from competition with a known ligand. Compound `CCCc1c(OCCCOc2cc(O)c(-c3ccc(F)cc3)cc2CC)cccc1[S+]([O-])c1ccccc1C(=O)O` (stereo not drawn) [2-{3-[3-(5-Ethyl-4'-fluoro-2-hydroxy-biphenyl-4-yloxy)-propoxy]-2-propyl-benzenesulfinyl}-benzoic acid] returned a Ki of 5.9 nM.

For `CCCc1c(OCCCOc2cc(O)c(-c3ccc(F)cc3)cc2CC)cccc1C(=O)c1ccccc1C(=O)O` [2-{3-[3-(5-Ethyl-4'-fluoro-2-hydroxy-biphenyl-4-yloxy)-propoxy]-2-propyl-benzoyl}-benzoic acid], the affinity, expressed as Ki, was 33 nM.

`CCCc1c(OCCCOc2cc(O)c(-c3ccc(F)cc3)cc2CC)cccc1Sc1ccccc1C(=O)O` [2-{3-[3-(5-Ethyl-4'-fluoro-2-hydroxy-biphenyl-4-yloxy)-propoxy]-2-propyl-phenylsulfanyl}-benzoic acid] came in with a Ki of 42 nM.
